Laboratory results reported in ChEMBL document CHEMBL1201862, “PubChem BioAssay data set” (2004).
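A five-concentration, 48-hour dose response in 96-well plates underlies each endpoint, interpolated linearly between surrounding concentrations. Here, GI50 denotes the concentration required for 50% inhibition of growth.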 Active and inactive are the calls of the source. Rule as the data show it: active = GI50 up to about 1.1 µM and inactive = higher.

Tests used:
Assay in all cases: NCI anticancer screen, dose series, 48 h
HCC 2998 = tested on: HCC 2998
SF-295 = tested on: SF-295
ACHN = tested on: ACHN
SF-268 = tested on: SF-268
786-0 = tested on: 786-0
A498 = tested on: A498
A549 = tested on: A549
SR = tested on: SR
SF-539 = tested on: SF-539
HCT-15 = tested on: HCT-15
OVCAR-3 = tested on: OVCAR-3
OVCAR-4 = tested on: OVCAR-4
HT-29 = tested on: HT-29
COLO 205 = tested on: COLO 205
NCI-H460 = tested on: NCI-H460
SK-MEL-2 = tested on: SK-MEL-2
NCI-H23 = tested on: NCI-H23
HOP-62 = tested on: HOP-62
SK-OV-3 = tested on: SK-OV-3
DMS-114 = tested on: DMS-114
EKVX = tested on: EKVX
UACC-257 = tested on: UACC-257
M19-MEL = tested on: M19-MEL
SNB-78 = tested on: SNB-78
SK-MEL-5 = tested on: SK-MEL-5
HCT-116 = tested on: HCT-116
MOLT-4 = tested on: MOLT-4
NCI-H226 = tested on: NCI-H226
K562 = tested on: K562
IGROV-1 = tested on: IGROV-1
SN12C = tested on: SN12C
OVCAR-8 = tested on: OVCAR-8
SK-MEL-28 = tested on: SK-MEL-28
KM12 = tested on: KM12
UO-31 = tested on: UO-31
HL-60 = tested on: HL-60
CAKI-1 = tested on: CAKI-1
Malme-3M = tested on: Malme-3M
TK-10 = tested on: TK-10
M14 = tested on: M14
LOX IMVI = tested on: LOX IMVI
DMS-273 = tested on: DMS-273
SNB-75 = tested on: SNB-75
RPMI-8226 = tested on: RPMI-8226
KM-20L2 = tested on: KM-20L2
U-251 = tested on: U-251
OVCAR-5 = tested on: OVCAR-5
XF498 = tested on: XF498
SW-620 = tested on: SW-620
RXF 393 = tested on: RXF 393
SNB-19 = tested on: SNB-19
HOP-92 = tested on: HOP-92
UACC-62 = tested on: UACC-62
CCRF-CEM = tested on: CCRF-CEM
DLD-1 = tested on: DLD-1
HOP-18 = tested on: HOP-18
LXFL 529 = tested on: LXFL 529
NCI-H522 = tested on: NCI-H522
Hs-578T = tested on: Hs-578T
NCI/ADR-RES = tested on: NCI/ADR-RES
BT-549 = tested on: BT-549
MCF7 = tested on: MCF7
PC-3 = tested on: PC-3

## FC(F)(F)c1cccc(/C=N/C23CC4CC(CC(C4)C2)C3)c1
HCC 2998
  GI50: > 100 µM (inactive)
SF-295
  GI50: > 100 µM (inactive)
ACHN
  GI50: > 100 µM (inactive)
SF-268
  GI50: > 100 µM (inactive)
786-0
  GI50: > 100 µM (inactive)
A498
  GI50: > 100 µM (inactive)
A549
  GI50: > 100 µM (inactive)
SR
  GI50: > 100 µM (inactive)
SF-539
  GI50: > 100 µM (inactive)
HCT-15
  GI50: > 100 µM
OVCAR-3
  GI50: > 100 µM (inactive)
OVCAR-4
  GI50: > 100 µM (inactive)
HT-29
  GI50: > 100 µM (inactive)
COLO 205
  GI50: > 100 µM (inactive)
NCI-H460
  GI50: > 100 µM (inactive)
SK-MEL-2
  GI50: > 100 µM (inactive)
NCI-H23
  GI50: > 100 µM (inactive)
HOP-62
  GI50: > 100 µM (inactive)
SK-OV-3
  GI50: > 100 µM (inactive)
DMS-114
  GI50: > 100 µM (inactive)
EKVX
  GI50: > 100 µM (inactive)
UACC-257
  GI50: > 100 µM (inactive)
M19-MEL
  GI50: 27.5 µM (inactive)
SNB-78
  GI50: > 100 µM (inactive)
SK-MEL-5
  GI50: > 100 µM (inactive)
HCT-116
  GI50: > 100 µM (inactive)
MOLT-4
  GI50: > 100 µM (inactive)
NCI-H226
  GI50: > 100 µM (inactive)
K562
  GI50: > 100 µM (inactive)
IGROV-1
  GI50: > 100 µM (inactive)
SN12C
  GI50: > 100 µM (inactive)
OVCAR-8
  GI50: > 100 µM (inactive)
SK-MEL-28
  GI50: > 100 µM (inactive)
KM12
  GI50: > 100 µM (inactive)
UO-31
  GI50: > 100 µM (inactive)
HL-60
  GI50: > 100 µM (inactive)
CAKI-1
  GI50: > 100 µM (inactive)
Malme-3M
  GI50: > 100 µM (inactive)
TK-10
  GI50: > 100 µM (inactive)
M14
  GI50: > 100 µM (inactive)
LOX IMVI
  GI50: > 100 µM (inactive)
DMS-273
  GI50: > 100 µM (inactive)
SNB-75
  GI50: 51.9 µM (inactive)
RPMI-8226
  GI50: > 100 µM (inactive)
KM-20L2
  GI50: > 100 µM (inactive)
U-251
  GI50: > 100 µM (inactive)
OVCAR-5
  GI50: > 100 µM (inactive)
XF498
  GI50: > 100 µM (inactive)
SW-620
  GI50: > 100 µM (inactive)
RXF 393
  GI50: > 100 µM (inactive)
SNB-19
  GI50: > 100 µM (inactive)

## Cc1ccc(S(=O)(=O)N(CC(=O)O)c2ccccc2)cc1
HCC 2998
  GI50: > 100 µM (inactive)
HOP-92
  GI50: > 100 µM (inactive)
UACC-62
  GI50: > 100 µM (inactive)
SF-295
  GI50: > 100 µM (inactive)
ACHN
  GI50: > 100 µM (inactive)
SF-268
  GI50: > 100 µM (inactive)
786-0
  GI50: > 100 µM (inactive)
A498
  GI50: > 100 µM (inactive)
A549
  GI50: > 100 µM (inactive)
SF-539
  GI50: > 100 µM (inactive)
HCT-15
  GI50: > 100 µM
OVCAR-3
  GI50: > 100 µM (inactive)
OVCAR-4
  GI50: > 100 µM (inactive)
HT-29
  GI50: > 100 µM (inactive)
COLO 205
  GI50: > 100 µM (inactive)
NCI-H460
  GI50: > 100 µM (inactive)
SK-MEL-2
  GI50: > 100 µM (inactive)
NCI-H23
  GI50: > 100 µM (inactive)
SK-OV-3
  GI50: > 100 µM (inactive)
EKVX
  GI50: > 100 µM (inactive)
UACC-257
  GI50: > 100 µM (inactive)
M19-MEL
  GI50: > 100 µM (inactive)
SK-MEL-5
  GI50: > 100 µM (inactive)
MOLT-4
  GI50: > 100 µM (inactive)
CCRF-CEM
  GI50: > 100 µM (inactive)
DLD-1
  GI50: > 100 µM (inactive)
K562
  GI50: > 100 µM (inactive)
IGROV-1
  GI50: > 100 µM (inactive)
SN12C
  GI50: > 100 µM (inactive)
HOP-18
  GI50: > 100 µM (inactive)
OVCAR-8
  GI50: > 100 µM (inactive)
SK-MEL-28
  GI50: > 100 µM (inactive)
KM12
  GI50: > 100 µM (inactive)
UO-31
  GI50: > 100 µM (inactive)
HL-60
  GI50: > 100 µM (inactive)
CAKI-1
  GI50: > 100 µM (inactive)
Malme-3M
  GI50: > 100 µM (inactive)
TK-10
  GI50: > 100 µM (inactive)
M14
  GI50: > 100 µM (inactive)
LOX IMVI
  GI50: > 100 µM (inactive)
DMS-273
  GI50: > 100 µM (inactive)
SNB-75
  GI50: > 100 µM (inactive)
RPMI-8226
  GI50: > 100 µM (inactive)
LXFL 529
  GI50: > 100 µM (inactive)
KM-20L2
  GI50: > 100 µM (inactive)
U-251
  GI50: > 100 µM (inactive)
OVCAR-5
  GI50: > 100 µM (inactive)
SW-620
  GI50: > 100 µM (inactive)
RXF 393
  GI50: > 100 µM (inactive)
NCI-H522
  GI50: > 100 µM (inactive)
SNB-19
  GI50: > 100 µM (inactive)

## Cc1cc2c(cc1O)[nH]c1cc3c(cc12)C=CC(C)(C)O3
OVCAR-3
  GI50: 7.28 µM (inactive)
OVCAR-4
  GI50: 10.5 µM (inactive)
COLO 205
  GI50: > 25 µM (inactive)
SK-MEL-2
  GI50: > 25 µM (inactive)
SK-OV-3
  GI50: > 25 µM (inactive)
DMS-114
  GI50: 10.6 µM (inactive)
SNB-78
  GI50: 11.3 µM (inactive)
K562
  GI50: > 25 µM (inactive)
OVCAR-8
  GI50: 4.55 µM (inactive)
TK-10
  GI50: > 25 µM (inactive)
RPMI-8226
  GI50: 9.1 µM (inactive)
OVCAR-5
  GI50: 17.7 µM (inactive)
XF498
  GI50: > 25 µM (inactive)
SNB-19
  GI50: > 25 µM (inactive)

## COc1cc(CNc2ccc(SC)cc2)cc(OC)c1OC
786-0
  GI50: 8.2 µM (inactive)
A498
  GI50: 13.6 µM (inactive)
A549
  GI50: 8.41 µM (inactive)
Hs-578T
  GI50: 11 µM (inactive)
NCI/ADR-RES
  GI50: 3.15 µM (inactive)
HCT-15
  GI50: 4.23 µM
OVCAR-3
  GI50: 3.68 µM (inactive)
OVCAR-4
  GI50: 27 µM (inactive)
HT-29
  GI50: 3.35 µM (inactive)
BT-549
  GI50: 1.63 µM (inactive)
COLO 205
  GI50: 3.47 µM (inactive)
NCI-H460
  GI50: 4.38 µM (inactive)
SK-MEL-2
  GI50: 6.27 µM (inactive)
DMS-114
  GI50: 3.37 µM (inactive)
EKVX
  GI50: 27.1 µM (inactive)
SNB-78
  GI50: 53.8 µM (inactive)
HCT-116
  GI50: 4.71 µM (inactive)
MOLT-4
  GI50: 5.6 µM (inactive)
CCRF-CEM
  GI50: 6.65 µM (inactive)
HOP-18
  GI50: 22.6 µM (inactive)
UO-31
  GI50: 10.9 µM (inactive)
HL-60
  GI50: 2.55 µM (inactive)
Malme-3M
  GI50: 7.29 µM (inactive)
M14
  GI50: 3.27 µM (inactive)
LOX IMVI
  GI50: 5.75 µM (inactive)
DMS-273
  GI50: 4.48 µM (inactive)
RPMI-8226
  GI50: 8.57 µM (inactive)
LXFL 529
  GI50: 12.6 µM (inactive)
KM-20L2
  GI50: 4.31 µM (inactive)
MCF7
  GI50: 3.36 µM (inactive)
PC-3
  GI50: 6.95 µM (inactive)
OVCAR-5
  GI50: 17.2 µM (inactive)
SW-620
  GI50: 3.46 µM (inactive)
NCI-H522
  GI50: 2.88 µM (inactive)
